Patent publication US20090155349A1, “METHODS OF TREATING INFLUENZA VIRAL INFECTIONS” (priority 2006, published 2009)

Key:
C3HA murine fibroblasts = experiment: TNF-α-induced apoptosis, Rhodamine 123 fluorescence; conditions: M4N 50 μM, TNF-α 20 ng/ml + cycloheximide 10 μg/ml, 6 hours
Method: C3HA murine fibroblasts were incubated with human recombinant TNF-α (20 ng/ml), cycloheximide (CHI) (10 μg/ml), or both, in the absence/presence of NDGA (25 μM) or M4N (50 μM). All compounds were added simultaneously and treatments were for 6 hours. Rhodamine 123 was added during the last half hour and fluorescence measured using a BMG POLARstar galaxy flourimeter.
More specifically, C3HA cells were cultured in Dulbecco's modified Eagles medium supplemented with 10% fetal bovine serum and maintained at 37° C. in 8% carbon dioxide. […] For apoptosis assays, cells were harvested by trypsinization, centrifuged, counted and 1.5×10^4 cells added to each well of a flat bottom 96 well microtiter plate in culture media. Cells were allowed to adhere at least six (6) hours prior to the addition to TNF (20 ng/ml), CHI (10 μg/milliliter), or both, in the absence/presence of nordihydroguaiaretic acid (25 μM) or M4N (50 μM). […] Both were dissolved in culture media. […] Rhodamine 123 is sequestered by energized mitochondria and live healthy cells display strong mitochondrial fluorescence. […] Fluorescence intensity was then determined using a BMG POLARstar galaxy microplate reader with excitation and emission wavelengths set at 492 and 538 nanometers, respectively. All points were performed in triplicate and percentage cell death was calculated from the following formula: […]

MDCK cells = experiment: Toxic effects in MDCK cells
influenza virus A/WS/33 = experiment: microbe, parasite or virus in culture; type: cell-based

COc1ccc(C[C@@H](C)[C@@H](C)Cc2ccc(OC)c(OC)c2)cc1OC [M4N, meso-1,4-bis(3,4-dimethoxyphenyl)-2,3-dimethylbutane]
inhibition of TNF-α-induced apoptosis (C3HA murine fibroblasts): strongly inhibits | highest concentration that could be used without causing toxic effects (MDCK cells): 25 µM | inhibitory effect on virus titer (log plot) (influenza virus A/WS/33; EM-1421 25 μM, MDCK cells): less than 1 log unit | inhibition at 25 µM (influenza virus A/WS/33; MDCK, 0.5 h, read-out: inhibition of A/WS/33 replication in MDCK cells): ~75%
